Square brackets hold non-standard residues; d marks the D form. Peptide text beside a SMILES is read from it. * marks the point of attachment. X2 = O=C(NCCCCn1cc(CN*)nn1)c1ccc2c(c1)C1(OC2=O)c2ccc(O)cc2Oc2cc(O)ccc21; Isoxazole3carbonyl(5-iPr) = CC(C)c1cc(C(=O)*)no1; Tyr(3-Cl) = N[C@@H](Cc1ccc(O)c(Cl)c1)C(=O)O; Gly(3-thienyl) = N[C@H](C(=O)O)c1ccsc1; Lys(Et2) = CCN(CC)CCCC[C@H](N)C(=O)O
Experiments:
CBX2 ChD = target: T1, CBX2 ChD (Homo sapiens, UniProt Q14781); experiment: Direct fluorescence polarization (FP) binding assay
T1 construct: CBX chromodomain constructs; host or cells: E. coli BL21 CodonPlus RIL
T1 sequence (Q14781 12-70 limits assumed): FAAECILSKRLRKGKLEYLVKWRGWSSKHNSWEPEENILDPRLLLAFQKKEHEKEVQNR
Description: (§1) Bacterial growth was completed at 37° C. in LB media to OD600=2.0, followed by reducing the temperature to 16° C. over 30-60 min and induced with 1 mM IPTG for 16 h. Cells were collected by centrifugation at 6000 rpm for 20 min and resuspended in ChD binding buffer (20 mM Tris, pH 8, 150 mM NaCl, 0.01% Tween-20, 20 mM imidazole) with 1.0 mM PMSF. Bacteria pellets were stored at −80° C. until needed. Pellets were thawed on ice for 10 min in ChD binding buffer, and shaked at 4° C. supplemented with 100 μg/mL lysozyme, 1 mg/mL CHAPS and 1 mM PMSF, for 30 min. Cells were subsequently lysed by sonication (15 W, 30 s on, followed by 30 s off, twice, followed by 20 W for 1 min). The solubilized fraction was collected by centrifugation at 15000 rpm for 40 min at 4° C. Meanwhile, Ni-NTA Agarose resin (QIAGEN, Venlo, Netherlands) was washed with H2O and equilibrated with ChD binding buffer. The soluble fraction was incubated with the prewashed Ni-NTA agarose resin at 4° C. for 2 h. The resin was then washed 3× with ChD purification buffer (20 mM Tris, pH 8, 150 mM NaCl, 0.01% Tween-20, 1 mM PMSF). Proteins were eluted by the addition of 0.5 M imidazole to ChD purification buffer. The elution was diluted with 30% glycerol, flash frozen, and stored at −80° C. until needed. Protein purity was assessed by SDS-PAGE and concentration was determined by the Pierce 660 kit (Thermo Scientific).
Direct fluorescence polarization (FP) binding assay of PSL hits against PcG CBX ChDs. FP assays were conducted as above with slight modifications. Alkyne peptides described above were conjugated with a fluorescein group(5-/6-FAM) through copper catalyzed click reaction as previously described. The FAM-labeled peptide was kept constant at 100 nM. The CBX ChD proteins were titrated by 2-fold series dilutions in the assays. The highest protein concentrations, at which FAM-peptide was completely bound, used for each CBX in the direct binding assays depends on the binding affinity of the peptides. Assays were performed for each peptide in four replicates.

CBX7 ChD = target: T2, CBX7 ChD (Homo sapiens, UniProt O95931); experiment: as above
T2 construct: CBX chromodomain constructs; host or cells: E. coli BL21 CodonPlus RIL
T2 sequence (O95931 11-69 limits assumed): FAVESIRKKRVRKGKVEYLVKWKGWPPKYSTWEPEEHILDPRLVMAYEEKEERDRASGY
Description: as §1, with “CBX chromodomain constructs (addgene plasmid #25158 (CBX2), #25237 (CBX4), #25296 (CBX6), #25241 (CBX7) and #62514 (CBX8, provided by Cheryl Arrowsmith), Kaustov et al.) were transformed into chemically competent BL21 CodonPlus RIL E. coli cells (Stratagene, La Jolla, Calif.) as N-terminal His6-tagged proteins. Bacterial” for “Bacterial”, “The soluble fraction was incubated with the prewashed Ni-NTA agarose resin at 4° C. for 2 h. The resin was then washed 3× with ChD purification buffer (20 mM Tris, pH 8, 150 mM NaCl, 0.01% Tween-20, 1 mM PMSF). Proteins were eluted by the addition of 0.5 M imidazole to ChD purification buffer. The elution was diluted with 30% glycerol, flash frozen, and stored at −80° C. until needed.” left out
Direct fluorescence polarization (FP) binding assay of PSL hits against PcG CBX ChDs. […]

CC[C@H](C)[C@H](NC(=O)[C@@H](NC(=O)[C@H](Cc1ccc(O)c(Cl)c1)NC(=O)c1cc(C(C)C)on1)c1ccsc1)C(=O)N[C@@H](CCCCN(CC)CC)C(=O)N[C@@H](CO)C(=O)NCc1cn(CCCCNC(=O)c2ccc3c(c2)C2(OC3=O)c3ccc(O)cc3Oc3cc(O)ccc32)nn1 [SW2_104A-FL] ({Isoxazole3carbonyl(5-iPr)}-[Tyr(3-Cl)][Gly(3-thienyl)]I[Lys(Et2)]S-X2)
Kd (CBX2 ChD): 51 ± 36 nM
Kd (CBX7 ChD): 840 ± 380 nM

Reference: patent US20210284691A1, “CBX8 CHROMDOMAIN INHIBITORS AND THE USES THEREOF” (Purdue Research Foundation, priority 2019, published 2021)
